Source: the supplement of paper PMC8149375

Legend:
Settings in all cases: treatment: drug alone; 5 days
SN12C [1] = experiment: GI50, drug alone; higher = less potent
Method: (§1)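 Primary HTS: 8 RCC cell lines treated with 8 doses (up to 10 uM) of each library drug alone for 5 days; viability read by CellTiter-Glo and normalised to DMSO. GI50 was fitted with XLfit (4-parameter), AUC is the area under the dose-response curve, and minimum viability is the lowest fraction of DMSO viability across doses.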

786-O [2] = experiment: GI50, drug alone; higher = less potent
Method: as §1

UO-31 [3] = experiment: GI50, drug alone; higher = less potent
Method: as §1

A498 [4] = experiment: GI50, drug alone; higher = less potent
Method: as §1

CAKI-1 [5] = experiment: GI50, drug alone; higher = less potent
Method: as §1

769-P [6] = experiment: GI50, drug alone; higher = less potent
Method: as §1

TK-10 [7] = experiment: GI50, drug alone; higher = less potent
Method: as §1

ACHN [8] = experiment: GI50, drug alone; higher = less potent
Method: as §1

SN12C [9] = experiment: minimum viability across doses, drug alone, relative to DMSO (fraction); higher = less growth inhibition
Method: as §1

786-O [10] = experiment: as above
Method: as §1

UO-31 [11] = experiment: as above
Method: as §1

A498 [12] = experiment: as above
Method: as §1

CAKI-1 [13] = experiment: as above
Method: as §1

769-P [14] = experiment: as above
Method: as §1

TK-10 [15] = experiment: as above
Method: as §1

ACHN [16] = experiment: as above
Method: as §1

SN12C [17] = experiment: AUC of dose-response viability curve, drug alone (arbitrary (AUC of normalised viability)); higher = less growth inhibition
Method: as §1

786-O [18] = experiment: as above
Method: as §1

UO-31 [19] = experiment: as above
Method: as §1

A498 [20] = experiment: as above
Method: as §1

CAKI-1 [21] = experiment: as above
Method: as §1

769-P [22] = experiment: as above
Method: as §1

TK-10 [23] = experiment: as above
Method: as §1

ACHN [24] = experiment: as above
Method: as §1

| SMILES | GI50, drug alone (786-O [2]) [nM] | GI50, drug alone (ACHN [8]) [nM] | GI50, drug alone (SN12C [1]) [nM] | GI50, drug alone (UO-31 [3]) [nM] | GI50, drug alone (A498 [4]) [nM] | GI50, drug alone (CAKI-1 [5]) [nM] | GI50, drug alone (769-P [6]) [nM] | GI50, drug alone (TK-10 [7]) [nM] | minimum viability across doses (SN12C [9]) | minimum viability across doses (786-O [10]) | minimum viability across doses (UO-31 [11]) | minimum viability across doses (A498 [12]) | minimum viability across doses (CAKI-1 [13]) | minimum viability across doses (769-P [14]) | minimum viability across doses (TK-10 [15]) | minimum viability across doses (ACHN [16]) | AUC of dose-response viability curve (SN12C [17]) | AUC of dose-response viability curve (786-O [18]) | AUC of dose-response viability curve (UO-31 [19]) | AUC of dose-response viability curve (A498 [20]) | AUC of dose-response viability curve (CAKI-1 [21]) | AUC of dose-response viability curve (769-P [22]) | AUC of dose-response viability curve (TK-10 [23]) | AUC of dose-response viability curve (ACHN [24]) |
| --- | --- | --- | --- | --- | --- | --- | --- | --- | --- | --- | --- | --- | --- | --- | --- | --- | --- | --- | --- | --- | --- | --- | --- | --- |
| C#Cc1cccc(Nc2ncnc3cc(OCCOC)c(OCCO)cc23)c1 | > 10000 | 472 | > 10000 | > 10000 | > 10000 | 2840 | 3480 | 2610 | 0.645 | 0.531 | 1.05 | 0.994 | 0.159 | 0.396 | 0.402 | 0.097 | 3.24 | 2.98 | 4.22 | 4.38 | 2.93 | 2.71 | 2.39 | 2.13 |
| COCCOc1ccc2c(c1)ncn2-c1ccc2cccc(N3CCC(N)CC3)c2n1 | 631 | 2480 | 2800 | 2910 | 3300 | 2110 | 6040 | 2120 | 0.0384 | 0.00547 | 0.00652 | 0.0414 | 0.292 | 0.333 | 0.198 | 0.0176 | 2.92 | 1.81 | 3.38 | 3.27 | 2.66 | 3.12 | 2.43 | 2.7 |
| CC1(COc2ccc3c(c2)ncn3-c2ccc3cccc(N4CCC(N)CC4)c3n2)COC1 | 538 | 2730 | 2190 | 1370 | 3470 | 3200 | 5050 | 4880 | 0.0442 | 0.00547 | 0.0124 | 0.0171 | 0.319 | 0.283 | 0.16 | 0.0169 | 2.58 | 1.83 | 2.67 | 3.5 | 2.69 | 2.25 | 2.88 | 2.98 |
| Cn1cc(C2=C(c3cn(C4CCN(Cc5ccccn5)CC4)c4ccccc34)C(=O)NC2=O)c2ccccc21 | > 10000 | > 10000 | > 10000 | > 10000 | > 10000 | > 10000 | > 10000 | > 10000 | 0.861 | 0.805 | 0.922 | 1.1 | 0.814 | 0.834 | 0.698 | 0.863 | 3.33 | 3.23 | 4.69 | 4.23 | 3.55 | 3.34 | 3.24 | 3.3 |
| CCc1cnn2c(NCc3ccc[n+]([O-])c3)cc(N3CCCC[C@H]3CCO)nc12 | 6.29 | 17 | 14.7 | 11 | 13.6 | 14.7 | 29.8 | 21.8 | 0.0122 | 0.00554 | 0.0105 | 0.00896 | 0.0724 | 0.0153 | 0.128 | 0.011 | 0.716 | 0.398 | 0.612 | 0.65 | 0.874 | 1.04 | 1.15 | 0.783 |
| Cc1nc(Nc2ncc(C(=O)Nc3c(C)cccc3Cl)s2)cc(N2CCN(CCO)CC2)n1 | 179 | 78.5 | 2300 | 135 | > 10000 | 78.8 | 149 | 25.7 | 0.377 | 0.0837 | 0.0768 | 0.631 | 0.0431 | 0.0457 | 0.0612 | 0.0527 | 2.35 | 1.9 | 1.93 | 3.35 | 1.45 | 1.7 | 1.11 | 1.52 |

Continued, in another order:

| GI50, drug alone (786-O [2]) [nM] | GI50, drug alone (ACHN [8]) [nM] | SMILES | GI50, drug alone (SN12C [1]) [nM] | GI50, drug alone (UO-31 [3]) [nM] | GI50, drug alone (A498 [4]) [nM] | GI50, drug alone (CAKI-1 [5]) [nM] | GI50, drug alone (769-P [6]) [nM] | GI50, drug alone (TK-10 [7]) [nM] | minimum viability across doses (SN12C [9]) | minimum viability across doses (786-O [10]) | minimum viability across doses (UO-31 [11]) | minimum viability across doses (A498 [12]) | minimum viability across doses (CAKI-1 [13]) | minimum viability across doses (769-P [14]) | minimum viability across doses (TK-10 [15]) | minimum viability across doses (ACHN [16]) | AUC of dose-response viability curve (SN12C [17]) | AUC of dose-response viability curve (786-O [18]) | AUC of dose-response viability curve (UO-31 [19]) | AUC of dose-response viability curve (A498 [20]) | AUC of dose-response viability curve (CAKI-1 [21]) | AUC of dose-response viability curve (769-P [22]) | AUC of dose-response viability curve (TK-10 [23]) | AUC of dose-response viability curve (ACHN [24]) |
| --- | --- | --- | --- | --- | --- | --- | --- | --- | --- | --- | --- | --- | --- | --- | --- | --- | --- | --- | --- | --- | --- | --- | --- | --- |
| 3870 | 381 | CC(C)(C)c1nc(-c2cccc(NS(=O)(=O)c3c(F)cccc3F)c2F)c(-c2ccnc(N)n2)s1 | > 10000 | > 10000 | > 10000 | 567 | > 10000 | 5140 | 0.942 | 0.463 | 0.75 | 0.91 | 0.163 | 0.842 | 0.447 | 0.115 | 3.69 | 2.47 | 4.68 | 4.27 | 2.67 | 3.52 | 2.54 | 2.19 |
| 4380 | 3510 | O=C(NOCC1CC1)c1ccc(F)c(F)c1Nc1ccc(I)cc1Cl | > 10000 | > 10000 | > 10000 | 4190 | 5010 | 4990 | 0.467 | 0.41 | 0.779 | 0.593 | 0.23 | 0.233 | 0.362 | 0.263 | 2.86 | 2.98 | 4.14 | 3.44 | 3.04 | 2.96 | 2.68 | 2.78 |
| 1240 | 3930 | Nc1nc(NCCNc2ncc(-n3ccnc3)c(-c3ccc(Cl)cc3Cl)n2)ccc1[N+](=O)[O-] | 9820 | 1650 | > 10000 | 7770 | 2720 | 1920 | 0.455 | 0.013 | 0.0119 | 0.701 | 0.211 | 0.0343 | 0.0728 | 0.0311 | 3.5 | 2.36 | 3.59 | 4.54 | 3.69 | 2.89 | 2.43 | 3.06 |
